Data reported in patent US20100029673A1, “THERAPEUTIC AGENTS COMPRISING AN ANTI-ANGIOGENIC AGENT IN COMBINATION WITH AN SRC-INHIBITOR AND THEIR THERAPEUTIC USE” (AstraZeneca AB, priority 2003, published 2010).

Columns and labels:
[1] = tested on: normotensive rats (Alderley Park strain, male animals); assay: Measurement of blood pressure in conscious rats by radio-telemetry; assay type: in vivo, rat; conditions: single dose p.o. of a combination of 1.5 mg/kg of VTK-1 and 25 mg/kg of Src-1 vs control citrate buffer vehicle; FIGS. 1-3
Description: Blood pressure was measured using commercially-available radio-telemetry equipment (Data Sciences International, Saint Paul, Minn., USA) which provides a means for the remote measurement of the blood pressure (BP), heart rate and activity of a conscious, unrestrained laboratory animal such as a rat. Measurements obtained using this system have the advantage that the test animal is free from stresses induced by surgery and/or restraint.
The equipment comprises a pressure transducer (Code No. TA11PA-C40; hereinafter the ‘pressure transducer implant’) that is implanted into the abdomen of a laboratory rat. The transducer transmits a radio signal indicating the pressure in the aorta of the animal and the signal is detected by a receiver (RA1010) placed under the plastic cage which houses the animal. The signal is recorded and evaluated automatically by pre-written computer software (DataQuest 2.1 that may be installed on a suitable computer such as an IBM-compatible personal computer containing an Intel™ 486 processor). […]
The animals were housed in a facility using a 12 hour cycle of light and dark. […] Blood pressure data were recorded from each animal every 10 minutes throughout each Study.
Typically, on day 1, each of a group of 3 rats was dosed p.o. at approximately 9.00 am with control vehicle and blood pressure data were recorded during the ensuing 24 hour period. […]

anaesthetized rats = conditions: 15 μg/kg bFGF; cited from earlier work
dog coronary arteries = conditions: cited from earlier work
conscious rats = conditions: cited from earlier work

CC(=O)N1CCN(CCOc2cc(OC(C)C)c3c(Nc4c(Cl)ccc5c4OCO5)ncnc3c2)CC1 [Src-1, 7-[2-(4-acetylpiperazin-1-yl)ethoxy]-4-(6-chloro-2,3-methylenedioxyanilino)-5-isopropoxyquinazoline]
contrasting blood pressure effects (diastolic blood pressure profile) [1]: substantially counter-balanced

bFGF: basic fibroblast growth factor
blood pressure returning to normal (anaesthetized rats): ≤ 30 min

VEGF
effect on dog coronary arteries in vitro (dog coronary arteries): dilate dog coronary arteries
return to normal blood pressure (conscious rats; VEGF 250 μg/kg, conscious rats): ≤ 20 min
effect on blood pressure in the conscious rat (conscious rats; conscious rat): induce hypotension

COc1cc2c(Oc3ccc4[nH]c(C)cc4c3F)ncnc2cc1OCCCN1CCCCC1 [VTK-1, 4-(4-fluoro-2-methylindol-5-yloxy)-6-methoxy-7-(3-piperidinopropoxy)quinazoline]
contrasting blood pressure effects (diastolic blood pressure profile) [1]: substantially counter-balanced
